# Key:
# [1] = test system: megakaryocytic precursors; assay: Chemotherapy-induced cell death of megakaryocytic cells; assay type: cell-based; settings: for sensitivity of mature polynucleated megakaryocytic precursors versus day 6 immature precursors: Etoposide 4 micromolar, Daunorubicin 0.5 micromolar or Vincristine 0.5 micromolar
# Procedure: Decreased platelet number is a common side effect of chemotherapy. In a separate set of experiments, the protective effect of SCF on chemotherapy-induced cell death was evaluated on megakaryocytic cells, which derive from hematopoietic stem and progenitor cells and give rise to platelets. […] We pretreated immature megakaryocytic precursors at day 4 of differentiation with SCF for 48 hours before exposure to chemotherapeutic agents. SCF was maintained during the exposure to chemotherapic agents.
# [2] = test system: caspase 3, caspase 7 and caspase 8
# Procedure: (§1) FIG. 2. […] After 24 hours the percentage of cell death was determined by ethidium bromide/acridine orange staining.
# (§2) FIG. 4. […] After 48 hours, 4×10^4 cells were washed and replated in standard erythroid medium with or without 100 ng/ml SCF.
# Western blotting. For detection of caspases, protein extracts were prepared by resuspending cell pellets in 1% NP40 lysis buffer (20 mM Tris/HCl pH 7.2, 200 mM NaCl, 1% NP40) in the presence of 1 mM phenylmethylsulphonyl fluoride (PMSF) and 2 μg/ml each of leupeptin, aprotinin and pepstatin. Concentration of lysates was determined by the Bradford assay (Bio-Rad Laboratories, Richmond, Calif.) and equal amounts of proteins were used for SDS-PAGE. Samples were analyzed by standard immunoblot procedure and visualized by chemiluminescence (Super Signal West Pico Pierce, Rockford, Ill.). Quantification of protein expression levels was performed with the NIH IMAGE software version 1.62 (by Wayne Rasband, National Institutes of Health, Research Services Branch, NIMH).
# CD34+ progenitors = assay: Chemosensitivity of CD34+ progenitors, cell death by ethidium bromide/acridine orange staining; assay type: cell-based, human; settings: CD34+ cells; 24 hours; 1.5 μg/ml cisplatin or 50 ng/ml camptothecin; standard erythroid medium
# Text: (§3) FIG. 1. Chemosensitivity of CD34^+ progenitors and erythroid precursors.
# (§4) Unilineage hematopoietic differentiation in bulk and single cell culture. Stem Cells. 1998; 16(suppl 1):51-73.
# (§5) Nature. […] Unilineage hematopoietic differentiation in bulk and single cell culture. Stem Cells. 1998; 16(suppl 1):51-73).
# [3] = test system: day 7 (pro/basophilic) erythroblasts
# Procedure: as §3, §1
# (§6) Adult peripheral blood human progenitor cell (HPC) purification and culture. Adult peripheral blood was obtained from male donors after their informed consent and the approval by the Committee for Human Studies. Human CD34^+ precursor cells were purified from peripheral blood by positive selection using the midi-MACS immunomagnetic separation system (Miltenyi Biotec, Bergisch Gladbach, Germany) according to the manufacturer's instructions. CD34^+ precursors were cultured in serum-free medium supplemented with 0.01 U/ml interleukin-3 (IL-3), 0.001 ng/ml GM-CSF and 3 U/ml Epo to induce unilineage erythroid differentiation. […] Cell viability was evaluated by ethidium bromide-acridine orange staining and fluorescence microscopy analysis.^15 The differentiation stage of erythroid precursor cells was evaluated by May-Grünwald-Giemsa staining and cytologic analysis. Ziegler B, Testa U, Condorelli G, Vitelli L, Valtieri M, Peschle C. Unilineage hematopoietic differentiation in bulk and single cell culture. Stem Cells. 1998; 16(suppl 1):51-73. For clonogenetic assay, 10^2 CD34^+ cells and 2×10^2 cells from day 5 or day 7 unilineage erythroid cultures were plated in duplicate in 0.9% methylcellulose containing 40% FCS and saturating concentrations of erythropoietin (3 U/mL), TPO (50 ng/mL), granulocyte macrophage-colony stimulating factor (GM-CSF; 10 ng/mL), M-CSF (250 U/mL), G-CSF (500 U/mL), IL-6 (10 ng/mL), stem cell factor (100 ng/mL), Flt3 ligand (100 ng/mL), and IL-3 (100 U/mL). Colonies were scored after 14 days of culture at 37° C. in a 5% CO2/5% O2/90% N2 humidified atmosphere.
# [4] = test system: day 14 (orthochromatic) erythroblasts; assay: Chemosensitivity of day 14 erythroblasts, cell death by ethidium bromide/acridine orange staining; assay type: cell-based; settings: 24 hours, 1.5 μg/ml cisplatin or 50 ng/ml camptothecin
# Text: as §3, §4, §5
# CD34 positive cells = assay: Protection of proliferating CD34 positive cells from chemotherapeutic agents in vitro; assay type: cell-based
# Procedure: as §6
# Bcl-2 and Bcl-XL = assay: Western blot analysis of Bcl-2 and Bcl-XL levels in day 7 erythroblasts; assay type: cell-based, human; settings: erythroblasts treated for two days with 100 ng/ml SCF versus standard erythroid medium
# day 7 erythroblasts = assay: Erythroblast recovery and expansion after removal of cisplatin; assay type: cell-based
# Procedure: as §2
# [5] = in vivo; cited from earlier work
# [6] = test system: erythroid and granulocytic precursor cells, uncommitted CD34+ progenitors; assay: SCF treatment of purified hematopoietic progenitors and precursors exposed to antineoplastic agents; assay type: cell-based, human
# Text: Purified populations of hematopoietic progenitors and precursors are routinarily obtained in our laboratory through purification of […] cells from peripheral blood and culture in serum-free medium with unilineage growth factors. Hematopoietic progenitor cells display different sensitivity to the cytotoxic effect of chemotherapeutic agents depending on their lineage commitment and stage of maturation. […] The protective effects of SCF are achieved by administrating this cytokine before the cytotoxic treatment, during the course of the treatment itself and after the toxic stimulus has been interrupted. […] Importantly, once the toxic stimulus has been removed, SCF-treated cells re-enter the differentiative pathway, maintaining their ability to complete successfully the normal maturation process.
# [7] = test system: day 7 erythroid culture cells; assay: Clonogenetic assay of erythroid unilineage culture cells in semisolid medium; assay type: cell-based, human; settings: two-days treatment with 100 ng/ml SCF (day 5 to day 7)
# Procedure: FIG. 5. […] (A) Clonogenetic assay of CD34^+ cells (day 0) or cells grown in liquid culture and subsequently plated in semisolid medium at day 5 or day 7 of erythroid differentiation. Control cells (day 5 and day 7 Epo) were cultivated in standard erythroid medium before the colony assay, whereas SCF-treated cells (day 7 Epo+SCF) received 100 ng/ml SCF from day 5 to day 7 of liquid culture. (B) Cytofluorimetric analysis of glycophorin A-positive cells in erythroid unilineage culture. Cells were analyzed after five (day 5) or seven days (day 7) of erythroid differentiation in standard erythroid medium (Epo) or in the same medium supplied with 100 ng/ml SCF starting from day 5 (Epo+SCF).
# as §4
# SCF supports the selective expansion of erythroid cells in unilineage culture conditions after treatment with chemotherapeutic agents. Theoretically, SCF may promote the growth of non-erythroid cells present in small numbers in erythroblastic cultures, and even specifically protect these contaminants from cytotoxic drugs, thus generating a post-chemotherapy population of non-erythroid cells. […]
# [8] = test system: anti-apoptotic genes belonging to the Bcl-2 family and to the Notch family; assay: Expression of pro- and anti-apoptotic genes in SCF-treated erythroid precursor cells; assay type: cell-based, human
# Text: In order to elucidate the mechanisms responsible for the protective effect of SCF from chemotherapy-induced cell death, we analysed the expression of pro- and anti-apoptotic genes in SCF-treated erythroid precursor cells. SCF induced an upregulation of anti-apoptotic genes belonging to the Bcl-2 family and to the Notch family, as well as an increase in the levels of several transcription factors involved in the control of cellular proliferation and survival.
compound,measurement,setting,value
COc1cccc2c1C(=O)c1c(O)c3c(c(O)c1C2=O)C[C@@](O)(C(C)=O)C[C@@H]3O[C@H]1C[C@H](N)[C@H](O)[C@H](C)O1 [Daunorubicin],sensitivity of mature polynucleated megakaryocytic precursors versus day 6 immature precursors,[1],more resistant
CC[C@@]1(O)C(=O)OCc2c1cc1n(c2=O)Cc2cc3ccccc3nc2-1 [camptothecin],caspase activation by cytotoxic drug,"[2]; day 7 erythroblasts, 8 hours, 200 ng/ml camptothecin, 3 μg/ml cisplatin or 5 μM etoposide","activated caspase 3, 7 and 8"
same,sensitivity to drug-induced apoptosis,CD34+ progenitors,modest sensitivity
same,sensitivity to cytotoxic effect of chemotherapeutic agents,"[3]; day 7 immature erythroblasts, 24 hours, 1.5 μg/ml cisplatin or 50 ng/ml camptothecin, saturating Epo",extremely sensitive
same,sensitivity to cytotoxic effect of chemotherapeutic agents,[4],almost completely resistant
zVAD-fmk [reference compound],effect on drug-induced caspase activation,"[2]; zVAD 40 μM, day 7 erythroblasts, 8 hours",abolished caspase activation
same,effect on chemotherapy-induced erythroblast death,"[3]; zVAD 40 μM, camptothecin, cisplatin or etoposide, 24 hours",abrogated completely
CC[C@]1(O)C[C@H]2CN(CCc3c([nH]c4ccccc34)[C@@](C(=O)OC)(c3cc4c(cc3OC)N(C=O)[C@H]3[C@@](O)(C(=O)OC)[C@H](OC(C)=O)[C@]5(CC)C=CCN6CC[C@]43[C@@H]65)C2)C1 [Vincristine],sensitivity of mature polynucleated megakaryocytic precursors versus day 6 immature precursors,[1],more resistant
same,death of early megakaryocytic cells,"[1]; day 6 precursors, Vincristine 0.5 micromolar",100%
same,death of late megakaryocytic cells,"[1]; day 12 precursors, Vincristine 0.5 micromolar",20%
"N.N.[Cl][Pt][Cl] [cisplatin, reference compound]",sensitivity to drug-induced apoptosis,CD34+ progenitors,modest sensitivity
same,death of CD34 positive cells in absence of SCF,"CD34 positive cells; 3 micrograms/mL Cisplatin, proliferating cells (interleukin-3, fms-like tyrosine kinase 3), no SCF",virtually all cells die
"SCF: haematopoietic growth factor, 18.6 KD, ligand of c-Kit; human recombinant SCF purchased from Peprotech",Bcl-2 and Bcl-XL protein levels,Bcl-2 and Bcl-XL,upregulated
same,proliferative activity after removal of the cytotoxic agent,"day 7 erythroblasts; SCF day 5-9, 3 μg/ml cisplatin 48 hours, washed, fresh medium",regained full proliferative activity
same,proliferation of survived erythroid cells with SCF maintained after drug removal,"day 7 erythroblasts; SCF day 5-21, 3 μg/ml cisplatin 48 hours",high proliferation rate
same,survival to cisplatin treatment,"day 7 erythroblasts; preincubated two days with 100 ng/ml SCF, 3 μg/ml cisplatin for 48 hours",enhanced survival
same,"amount of inactive pro-caspase 3, 7 and 8 versus control erythroblasts","[2]; pretreated two days with SCF, 8 hours camptothecin, cisplatin or etoposide",significantly higher
same,tolerability of administration,[5],generally well tolerated
same,protection of megakaryocytic cells from toxic effects of antineoplastic drugs,"[1]; 100 ng/ml SCF from day 4 for 48 hours and during exposure, Etoposide, Daunorubicin or Vincristine",significantly protected
same,protection of erythroblasts from toxic effects of antineoplastic drugs,"[3]; 100 ng/ml SCF from day 5 for 48 hours and during exposure, camptothecin, cisplatin or etoposide",significantly protected
same,protection from death induced by antineoplastic agents,[6],strong protection
same,CD34 positive cells surviving,"CD34 positive cells; 3 micrograms/mL Cisplatin, cells induced to proliferate with interleukin-3 (50 units/mL) and fms-like tyrosine kinase 3 (100 nanograms/mL), treated with SCF",about 50%
same,expansion and clonogenetic output after removal of chemotherapeutic drugs,"CD34 positive cells; SCF-treated cells, clonogenetic assays",able to expand and give rise to all the standard hematopoietic populations
same,protection of CD34 positive cells from cytotoxic activity of chemotherapeutic agents,"CD34 positive cells; in vitro, Cisplatin, Etoposide and Daunorubicin",protects
same,growth of erythroid colonies,[7],significant stimulatory effect
same,percentage of granulo-monocytic colonies,[7],did not significantly increase
same,expression of anti-apoptotic genes of the Bcl-2 family and Notch family,[8],upregulation
COc1cc([C@@H]2c3cc4c(cc3[C@@H](O[C@@H]3O[C@@H]5CO[C@@H](C)O[C@H]5[C@H](O)[C@H]3O)[C@H]3COC(=O)[C@H]23)OCO4)cc(OC)c1O [etoposide],sensitivity of mature polynucleated megakaryocytic precursors versus day 6 immature precursors,[1],more resistant

# From patent US7994125B2, “Stem cell factor for preventing chemotherapy-induced depletion of blood cells” (Istituto Superiore Di Sanita, priority 2003, dated 2011)
